# Measured values taken from patent US20090137617A1, “USE OF HAPTOGLOBIN GENOTYPING IN DIAGNOSIS AND TREATMENT OF CARDIOVASCULAR DISEASE” (priority 2007, published 2009).
# Read-outs that look alike come from different tables or passages of the source.
# Key:
# [1] = per 1 mg, according to the National Formulary, cited from earlier work
# [2] = tested on: cultured endothelial cells; details: vitamin E added to the cellular preparation; cited from earlier work
# [3] = double-blind protocols and other large studies, even at high doses; cited from earlier work
# [4] = tested on: DM individuals with the Hp 2-2 genotype; assay: ICARE study: randomized placebo-controlled trial of vitamin E, cardiovascular events (MI, stroke, CVD death); format: in vivo, human
# Source text: The study protocol of the ICARE study involves the following: participants were drawn from 47 primary health clinics of the […] Health Services in the northern sector of Israel. […] These Hp 2-2 individuals were randomly assigned to treatment with either vitamin E or placebo. The major study outcomes (MI, stroke, CVD death) were identified prospectively in this population over an 18 month period. A preplanned secondary analysis of ICARE was to assess the ability of vitamin E therapy to influence outcomes in those ICARE participants who were also taking statins. Statin use as prospectively defined in ICARE was based on the use of statins by the participant in at least eight of the twelve months preceding enrollment of the participant in the study. The decision to use statins for a particular participant was under the discretion of the patient's primary care physician and was in no way influenced by the patient's participation in the ICARE study […] However, only about half of the Hp 2-2 DM participants in ICARE received statin therapy. […] Of the 801 Hp 2-2 individuals taking […] cohort, 386 were randomized to vitamin E and 415 to placebo. There was no significant difference in the baseline characteristics, concurrent medications, or diabetes characteristics between those individuals taking statins who were randomized to placebo or vitamin E.
# [5] = animal studies; cited from earlier work
molecule,measurement,setting,value
CC(=O)Oc1c(C)c(C)c2c(c1C)CC[C@@](C)(CCC[C@H](C)CCC[C@H](C)CCCC(C)C)O2 (racemic) [dl-alpha-tocopheryl acetate],specific activity (IU per milligram),[1]; listed as all-rac-α-tocopherol acetate,1.00 IU
CC(=O)Oc1c(C)c(C)c2c(c1C)CC[C@@](C)(CCC[C@H](C)CCC[C@H](C)CCCC(C)C)O2 [d-alpha-tocopheryl acetate],specific activity (IU per milligram),[1]; listed as RRR-.alpha-tocopherol acetate,1.36 IU
alpha-tocopherol [vitamin E],oxidative modification of LDL,[2],totally inhibited
same,side effects,[3],few side effects
same,"event rate (MI, stroke, CVD death)","[4]; Hp 2-2 DM individuals taking statins (at least eight of the twelve months preceding enrollment), randomized to vitamin E, 18 month period",1.3%
same,hazard ratio [HR] vs placebo,"[4]; Hp 2-2 DM individuals taking statins, vitamin E vs placebo, 95% CI 0.15-0.83, p=0.017 by log-rank",0.31
same,reduction in CVD events,"[4]; all Hp 2-2 DM participants in ICARE, vitamin E vs placebo",50%
same,"event rate (MI, stroke, CVD death)","[4]; statin use widened to at least one of the twelve months preceding enrollment, p=0.013 vs placebo",1.7%
same,carcinogenicity / teratogenicity,[5],not carcinogenic or teratogenic
Cc1c(C)c2c(c(C)c1O)CCC(C)(CCCC(C)CCCC(C)CCCC(C)C)O2 (racemic) [dl-alpha-tocopherol],specific activity (IU per milligram),[1],1.10 IU
Cc1c(C)c2c(c(C)c1O)CC[C@@](C)(CCC[C@H](C)CCC[C@H](C)CCCC(C)C)O2 [d-alpha-tocopherol],specific activity (IU per milligram),[1],1.49 IU
